These results are taken from publication PMC11811597, “Phenomics‐Based Discovery of Novel Orthosteric Choline Kinase Inhibitors” (Angewandte Chemie (International Ed. in English), 2025).

Molecules are shown by their SMILES.

In test [1] the test system is ZNF644. The test is described as follows: Competitive affinity-based chemoproteomics (UNC0965 matrix), MCF7 lysate. As to conditions: 20 μM competitor, n=2. The class given is binding, human. How it is done: A-366 and UNC0638 were purchased from Tocris. ARIAD and V-11-07-11 were purchased from Wuxi Apptec. UNC0737 and UNC0965 were synthesised as previously described.[1] Hemicholinium-3 and pyruvate kinase/lactic dehydrogenase enzymes were purchased from Sigma Aldrich. Aqueous and organic solvents were MS-grade and acquired by Sigma Aldrich unless stated otherwise.
MDA-MB-231, MCF7 and HEK293 cells were cultured in DMEM (Gibco, #11965092) supplemented with 10% FBS. K562 were cultured in IMDM (Gibco, #12440053) supplemented with 10% FBS. HepG2 were cultured in MEM (Gibco, #11095080) supplemented with 10 % FBS. […]
cultured in McCoy’s 5A (Sigma, M8403) supplemented with 10 % FBS and 1x GlutaMAX (Gibco, #35050061). Cells were maintained at 37 °C in a humidified 5% CO2 atmosphere. Peripheral blood mononuclear cells (PBMC) were isolated from healthy blood donors by density centrifugation. […]
Cell Titer-Glo® reagent was added to each well and total luminescence readings were performed within 15 min using the PHERAstar FSX (BMG Labtech). […]
Digested samples were analysed by nano-UPLC–MS/MS using a Dionex Ultimate 3000 nano UPLC fitted with an EASY spray column (75 μm × 500 mm, 2 μm particle size, Thermo Scientific), coupled to an Orbitrap Q Exactive instrument. […]

Test [2] deals with CHKA (Homo sapiens, UniProt P35790). The test is described as follows: PISA thermal profiling, intact HepG2 cells. Format: cell-based. The arrangement: endogenous in cells; host or cells: intact HepG2 cells. As to conditions: 30 µM; for effect_CETSA_Intact (PISA amplitude), CHKA: 60 min, n=3. How it is done: To further corroborate our findings, we next performed the proteome integral solubility alteration (PISA) assay in HepG2 human hepatoma cells that express high levels of CHKA. Conceptually building on the cellular thermal shift assay (CETSA) with mass spectrometry based detection,[19, 20] PISA leverages compound‐mediated stabilisation of target proteins without the need of chemical modification in intact cells. […]
CHKA, sequence (P35790 whole entry): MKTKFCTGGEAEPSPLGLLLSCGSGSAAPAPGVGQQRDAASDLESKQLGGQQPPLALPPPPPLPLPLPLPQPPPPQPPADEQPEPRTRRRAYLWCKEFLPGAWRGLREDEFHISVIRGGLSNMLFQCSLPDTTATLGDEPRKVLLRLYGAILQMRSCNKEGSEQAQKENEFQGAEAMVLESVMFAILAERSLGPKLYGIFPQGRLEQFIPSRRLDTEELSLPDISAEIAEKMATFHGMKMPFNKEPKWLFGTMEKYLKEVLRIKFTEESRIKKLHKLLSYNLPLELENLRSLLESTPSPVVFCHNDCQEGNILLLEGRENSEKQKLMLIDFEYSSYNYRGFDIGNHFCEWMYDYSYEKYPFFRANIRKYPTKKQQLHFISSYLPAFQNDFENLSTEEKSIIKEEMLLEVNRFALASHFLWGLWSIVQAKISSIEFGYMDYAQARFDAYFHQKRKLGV
Experiments were performed as described earlier with few modifications. In short, 3 replicates of intact HepG2 cells were treated with 30 µM UNC0638, […] or corresponding volume of DMSO in medium-free experimental buffer for 60 min at 37 °C with end-over-end rotation. For lysates: Washed K562 cells were resuspended in medium-free experimental buffer and lysed by three freeze-thaw cycles. Lysate was centrifugated 20,000 × g for 20 min at 4 °C to remove cell debris. The cleared lysate was treated with 30 µM UNC0638, UNC0373 or corresponding volume of DMSO for 15 min at RT with end-over-end rotation. Each treated cell suspension or lysate was divided into 12 aliquots and subjected to a 12-step heat gradient from 44 °C to 64 °C. All the temperature points were pooled together to form […] individual samples. Soluble fraction was separated from precipitated proteins […]
by centrifugation at 30,000 × g for 20 min at 4 °C. The soluble fractions were collected to fresh tubes and further processed to be analysed with mass spectrometry. Sample handling, TMT labelling, LC-MS/MS analysis, protein identification and data analysis was performed as described earlier.[12] […]
Biosciences) was used for data analysis. The blood was obtained under an approved ethical review from the Regional Ethical Review Board in Stockholm, approval number 2015/2001-31/2. The donors gave their consent to participate after written and oral information.

`COc1cc2c(NC3CCN(C(C)C)CC3)nc(C3CCCCC3)nc2cc1OCCCN1CCCC1` [UNC0638]: in test [1], the “FC vs DMSO (log2 competition), ZNF644” value is -2.1553. In addition, in test [2], the “stabilisation of CHKA (PISA)” value is recorded as “significant stabilisation of CHKA” and the “effect_CETSA_Intact (PISA amplitude), CHKA” value was 0.57.

`COc1cc2c(N(C)C3CCN(C(C)C)CC3)nc(C3CCCCC3)nc2cc1OCCCN1CCCC1` [UNC0737]: the “FC vs DMSO (log2 competition), ZNF644” value in test [1] was determined as 0.3825. Also, in test [2], the “stabilisation of CHKA (PISA)” value is “significant stabilisation of CHKA” and the “effect_CETSA_Intact (PISA amplitude), CHKA” value is recorded as 0.619.
